From patent publication US10544103B2, “5-HT2 antagonists” (ANAMAR AB, priority 2015, dated 2020)

Biological target: T1, 5-HT2B receptor (Homo sapiens, UniProt P41595)
T1 construct: host or cells: CHO-K1
Experiment: 5-HT2B receptor binding, 3H-LSD ligand displacement assay
Settings: for inhibition at 0.1 µM: 0.1 uM compound; for inhibition at 1 µM: 1 uM compound; for inhibition at 0.001 µM: 0.001 uM compound; for inhibition at 0.01 µM: 0.01 uM compound
Experimental: 5-HT2B receptor binding (performed at Eurofins Panlabs Taiwan, Ltd.) to human receptor protein expressed in CHO-K1 cells was determined in a ligand displacement assay using ^3H-lysergic acid diethylamide (LSD) as radioligand and ketanserine as a standard reference compound. Data is presented as % displacement of radioligand at indicated compound concentrations, see Table 1 and Table 2.

T1 sequence (P41595 whole entry): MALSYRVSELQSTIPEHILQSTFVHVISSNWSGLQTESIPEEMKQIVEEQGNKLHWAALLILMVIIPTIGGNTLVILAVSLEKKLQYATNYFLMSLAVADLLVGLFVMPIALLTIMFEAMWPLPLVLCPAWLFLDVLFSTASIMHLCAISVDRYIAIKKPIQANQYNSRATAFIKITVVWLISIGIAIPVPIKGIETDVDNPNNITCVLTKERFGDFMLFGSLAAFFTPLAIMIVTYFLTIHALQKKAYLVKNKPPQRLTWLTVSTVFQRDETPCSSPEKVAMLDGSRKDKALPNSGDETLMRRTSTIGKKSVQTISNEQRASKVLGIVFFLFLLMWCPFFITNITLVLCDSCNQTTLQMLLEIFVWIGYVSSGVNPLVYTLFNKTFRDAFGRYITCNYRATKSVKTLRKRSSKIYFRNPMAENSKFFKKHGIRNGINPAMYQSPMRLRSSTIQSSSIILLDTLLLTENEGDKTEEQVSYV

inhibition at 0.1 µM | inhibition at 1 µM | inhibition at 10 µM (10 uM compound) | Compound | inhibition at 0.001 µM | inhibition at 0.01 µM
41% | 89% |  | CNC(=N)N1CCC(c2ccccc2O)=N1 [Example 20, 3-(2-Hydroxyphenyl)-N-methyl-4,5-dihydro-1H-pyrazole-1-carboximidamide] |  | 
20% | 43% |  | CC1CN(C(=N)N)N=C1c1ccnc2ccccc12 (stereo not shown) [Example 71, 4-Methyl-3-(quinolin-4-yl)-4,5-dihydro-1H-pyrazole-1-carboximidamide] |  | 11%
77% |  |  | COc1ccc(NC(=N)N2CC(C)C(c3ccccc3OCc3ccccc3)=N2)cc1 (stereo not shown) [Example 104, 3-(2-(Benzyloxy)phenyl)-N-(4-methoxyphenyl)-4-methyl-4,5-dihydro-1H-pyrazole-1-carboximidamide] | -9% | 33%
 | 89% | 101% | COc1ccccc1C1=NN(C(=N)N)CC1C (stereo not shown) [Example 18, 3-(2-Methoxyphenyl)-4-methyl-4,5-dihydro-1H-pyrazole-1-carboximidamide] |  | 
 |  |  | CC1CN(C(=N)NCc2ccccc2Cl)N=C1c1ccccc1O (stereo not shown) [Example 56, N-(2-Chlorobenzyl)-3-(2-hydroxyphenyl)-4-methyl-4,5-dihydro-1H-pyrazole-1-carboximidamide] | 52% | 95%
101% |  |  | CC1CN(C(=N)NC2CCCCC2)N=C1c1cccc(Cl)c1O (stereo not shown) [Example 85, 3-(3-Chloro-2-hydroxyphenyl)-N-cyclohexyl-4-methyl-4,5-dihydro-1H-pyrazole-1-carboximidamide] | 47% | 93%
 |  |  | CC1CN(C(=N)NCCc2ccccc2)N=C1c1ccccc1O (stereo not shown) [Example 65, 3-(2-hydroxyphenyl)-4-methyl-N-phenethyl-4,5-dihydro-1H-pyrazole-1-carboximidamide] | 48% | 89%
28% | 79% |  | CC1(C)CN(C(=N)N)N=C1c1ccccc1O [Example 32, 3-(2-Hydroxyphenyl)-4,4-dimethyl-4,5-dihydro-1H-pyrazole-1-carboximidamide] |  | 

Compound | inhibition at 0.1 µM | inhibition at 1 µM | inhibition at 10 µM (10 uM compound) | inhibition at 0.001 µM | inhibition at 0.01 µM
CC1CN(C(=N)NCC(F)(F)C(F)(F)C(F)(F)F)N=C1c1cccc(Cl)c1O (stereo not shown) [Example 107, 3-(3-Chloro-2-hydroxyphenyl)-N-(2,2,3,3,4,4,4-heptafluorobutyl)-4-methyl-4,5-dihydro-1H-pyrazole-1-carboximidamide] | 100% |  |  | 51% | 91%
N=C(N)N1CCC(c2coc3ccccc23)=N1 [Example 14, 3-(Benzofuran-3-yl)-4,5-dihydro-1H-pyrazole-1-carboximidamide] | 40% | 88% |  |  | 
COc1cc(C(F)(F)F)ccc1C1=NN(C(=N)N)CC1C (stereo not shown) [Example 68, 3-(2-Methoxy-4-(trifluoromethyl)phenyl)-4-methyl-4,5-dihydro-1H-pyrazole-1-carboximidamide] | 32% | 86% |  |  | 
Cc1c(C2=NN(C(=N)N)C(C)C2)sc2ccccc12 (stereo not shown) [Example 29, 5-Methyl-3-(3-methylbenzo[b]thiophen-2-yl)-4,5-dihydro-1H-pyrazole-1-carboximidamide] | 69% | 97% |  |  | 
